One assay deals with T1, IL-1R1 (Homo sapiens, UniProt P14778).
T1 sequence (P14778 18-569): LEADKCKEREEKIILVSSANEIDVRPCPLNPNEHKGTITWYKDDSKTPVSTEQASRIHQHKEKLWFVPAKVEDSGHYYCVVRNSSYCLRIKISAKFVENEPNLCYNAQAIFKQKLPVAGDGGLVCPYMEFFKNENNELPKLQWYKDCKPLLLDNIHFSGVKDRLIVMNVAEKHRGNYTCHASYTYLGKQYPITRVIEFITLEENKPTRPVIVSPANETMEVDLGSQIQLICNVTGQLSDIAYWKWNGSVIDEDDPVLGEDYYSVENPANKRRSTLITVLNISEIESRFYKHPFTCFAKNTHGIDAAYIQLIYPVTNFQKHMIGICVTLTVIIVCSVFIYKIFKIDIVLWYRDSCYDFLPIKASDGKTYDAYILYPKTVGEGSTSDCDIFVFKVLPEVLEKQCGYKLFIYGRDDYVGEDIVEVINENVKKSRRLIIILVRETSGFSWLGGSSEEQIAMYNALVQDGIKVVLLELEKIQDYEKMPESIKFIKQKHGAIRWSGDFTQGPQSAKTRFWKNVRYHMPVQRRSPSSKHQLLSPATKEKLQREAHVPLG
Particulars: cited from earlier work.

The subject of assay [1] is Renin AAV Uni-nephrectomized db/db (Renin AAV UNx) mice. The assay can be described thus: Renin AAV uni-nephrectomized db/db mouse model of diabetic nephropathy, 77 days treatment. Format: in vivo. On the procedure:
56 female mice (BKS.Cg-Dock7m+/+ Lepradb/db BLKS, 5 weeks of age) were transferred to the Gubra Research animal unit. The animals were group housed until uni-nephrectomies, then single housed. Throughout the habituation and study period the animals were in a light-, temperature- and humidity-controlled room with free access to food and water. All animal experiments were conducted in accordance with Gubra bioethical guidelines, which are fully compliant to internationally accepted principles for the care and use of laboratory animals.
Animals were terminated on day 77; blood was taken for later analysis, body weight was recorded, and spot urine was collected.
SER140 was provided by Phlogo ApS, Copenhagen, Denmark (10 mg/ml miliQ water diluted to the different dose formulations). SER140 is a dendrimer composed of four monomeric peptides each with the sequence SGRKSSKMQA (SEQ ID NO:1), and coupled to a lysine backbone. Vehicle was miliQ:PBS 1:5.
After one week of acclimatization the mice received an IV injection of Renin adenosin-associated virus (AAV). […]
All blood samples were taken from the mice tail in heparinized tubes, plasma was separated and stored at minus 80 C until analysis. Non-fasting BG (blood glucose) was measured using BIOSEN c-line glucose meter (EKF-diagnostics, Germany), blood for HbA1c analysis was immediately suspended in Hemolyzing Reagent and stored until analysis using autoanalyzer Cobas C-111 with commercial kit (Roche Diagnostics, Germany), plasma urea using commercial kits (Roche Diagnostics).
Urine samples were stored at minus 80 C until analysis. Urine for measurement of albumin and creatinine were centrifuged at 2000 g for 2 min prior to analysis Urine albumin was measure using a commercial ELISA kit (Bethyl Laboratories, Inc.), according to the manufacturer's instructions, and urine creatinine was measured using a commercial kit (Roche Diagnostics) on the Cobas c 501 autoanalyzer, according to the manufacturer's instructions. Urinary KIM-1 was measured using a commercial ELISA kit (R&D Systems), according to the manufacturer's instructions.

In the next assay the test system is macrophages. Particulars: downstream of IL-1 receptor activation; cited from earlier work.

“Also recorded” adds a separate entry of the source. Ends that are not written are not given here.

In the case of “SER140: dendrimer composed of four monomeric peptides each with the sequence SGRKSSKMQA (SEQ ID NO:1), coupled to a lysine backbone (also: tetrameric dendrimer: four copies coupled to a lysine backbone)”, the “receptor binding of IL-1p” value with IL-1R1 is “inhibit”. In addition, the “urinary albumin corrected for creatinine (ACR)” value in assay [1] (spot urine, day 77, 3, 10 and 20 mg/kg SER140 subcutaneously once daily vs vehicle, FIG. 1 (medians)) is on record as “decreased; also recorded: significantly reduced”. In assay [1] (spot urine, day 77, 3, 10 and 20 mg/kg SER140 subcutaneously once daily vs vehicle, FIG. 2 (means)), the “urinary KIM-1 corrected for creatinine (KIM-1/CR)” value was “decreased; also recorded: significantly reduced”. Besides, the HbA1c entry in assay [1] (vehicle vs SER140 treatment) is recorded as “no changes”. In addition, the “macrophages liberation / secretion of TNFα” value in the assay on macrophages is given as “reduce”.

Take “SGRKSSKMQA (Variant of fragment of IL1RA) [SEQ ID NO:1, 10-amino acid peptide derived from IL1RA]”: the “macrophages liberation / secretion of TNFα” value in the assay on macrophages is listed as “inhibit”.

Source of the values: patent US20240216464A1, “IL1RA DERIVED PEPTIDES FOR TREATMENT OF DIABETIC NEPHROPATHY” (SERODUS APS, priority 2021, published 2024).
